Test results as given in patent US10583119B2, “Compounds, compositions and methods for making the same” (Signum Biosciences, Inc., priority 2008, dated 2020).

Key:
PP2A = target: T1, PP2A (Homo sapiens, UniProt P67775); experiment: Phosphatase activity of PP2A using phosphorylase a as substrate; type: biochemical; settings: un-methylated PP2A, protein substrate phosphorylase a, absence of ME and MT
T1 construct: made in house
Experimental: After the reaction, proteins were precipitated by 50% (NH4)2SO4 (final concentration) twice, and collected by centrifugation. The pellet was re-dissolved and dialyzed in a buffer containing 50 mM Tris-HCl (pH6.9) and ImM DTT for 2×2 L at 4° C. overnight. Phosphorylase a (phospho-phosphorylase b) crystallized during the dialysis. The dialysate was centrifuged 14,000 r.p.m at 4° C. for 30 minutes, the supernatant was removed and purified ^32P-labelled phosphorylase a was re-dissolved in +50% glycerol, and stored at −20° C.
To measure PP2A's phosphatase activity, PP2A (5-20 nM) was incubated with phosphorylase a (5-10 μM) at 37° C. 10% TCA (final concentration) and was added to the reaction to precipitate proteins. Supernatant that contains free ^32P-phosphate group was added into scintillation counting solution (Ecoscint, National Diagnostics), and counted by scintillation counter (LS 6000SE, Beckman).

[1] = target: T2, protein phosphatase specific protein methylesterase (MEase) (Homo sapiens, UniProt Q9Y570); experiment: PP2A demethylation with [3H]-SAM and purified proteins (methylesterase activity); type: biochemical; settings: purified methylated PP2A and MEase; read-out: ME (IC50)
T2 construct: made in house
T2 sequence (Q9Y570 1-386): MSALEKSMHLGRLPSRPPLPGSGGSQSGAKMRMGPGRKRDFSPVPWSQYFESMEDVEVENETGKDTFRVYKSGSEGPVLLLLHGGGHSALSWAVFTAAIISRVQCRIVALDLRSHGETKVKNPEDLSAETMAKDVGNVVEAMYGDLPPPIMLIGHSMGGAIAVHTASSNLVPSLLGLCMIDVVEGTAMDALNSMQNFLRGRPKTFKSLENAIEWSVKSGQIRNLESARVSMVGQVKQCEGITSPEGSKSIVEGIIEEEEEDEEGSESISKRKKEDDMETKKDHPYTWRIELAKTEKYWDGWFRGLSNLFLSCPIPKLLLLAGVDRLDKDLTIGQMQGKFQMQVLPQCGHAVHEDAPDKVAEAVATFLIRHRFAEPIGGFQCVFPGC
Experimental: PP2A (methylated and unmethylated) were eluted with 1.6 mL of Buffer A containing 350 mM NaCl. Fractions (0.2 mL each) were collected and the radioactivity in each fraction was measured using the scintillation counter (LS 6000SE, Beckman). Fractions with highest radioactivity were containing purified methylated PP2A were pooled with a total volume of 0.6 mL-0.8 mL. Purified methylated PP2A (50 nM-100 nM) was incubated with MEase (5 nM-20 nM) in 20 μl-50 μl reaction at room temperature for 30 minutes. The reaction was terminated by adding TCA (2 μl-6 μl) to a final concentration of 10%. Released [^3H]-methanol in supernatants was counted with scintillation counter (LS 6000SE, Beckman).

N2a Neuroblastoma Cells = experiment: Cytotoxicity in N2a neuroblastoma cells (CellTiter 96 AQueous One); type: cell-based; settings: all concentrations tested (1-50 μM)
Experimental: 2×10^4 N2a cells were plated in each well of a 96-well cell culture plate containing 100 pi EMEM (Gibco), supplemented with 10% FBS (N2a growth medium), and were incubated at 37° C. for 48 hours. On the day of treatment, stock solutions of […] of Compound I-63 in ethanol were further diluted with N2a growth medium to obtain Compound I-63-containing N2a medium with 50 μM, 10 μM, 5 μM and 1 μM Compound I-63. The final concentration of ethanol in all media dilutions was 1%, and therefore 1% ethanol was added to the 0 μM Compound I-63 (untreated) control. The media dilutions were applied to the N2a cells (100 µl per well) and incubated at 37° C. for 4 hours or 24 hours. At the end of the treatment period, cell media was removed and 100 μl of pre-warmed phenol red-free N2a growth media was added to each well. 20 µl of the CellTiter 96® AQueous One Solution (Promega) was added to each well and the dish was incubated at 37° C. for 1-4 hours until visible reddish color develops. The dish was read at a wavelength of 490 nm using a plate reader. N2a cells were grown in 96-well dishes and were treated for 4 hours (♦) or 24 hours (i) with increasing concentrations of Compound I-63. Cell survival was assayed using the CellTiter 96® AQueous One Solution (Promega) using the manufacturer's directions. […]

phosphorylated Tau = experiment: Phosphorylated tau in vivo at four weeks (pS396 Western blot of brain); set-up: species or system mice; settings: 0.1% in chow, phospho-Serine 396
Experimental: Swiss Webster mice (9-12 weeks old) were fed ad libitum, either standard rodent chow (Control), or rodent chow formulated with 0.1 g Compound I-63 per 100 g chow (0.1% Compound I-63) or 0.1 g Compound I-62 per 100 g chow (0.1% Compound I-62); water was changed weekly. Mice were housed at 23° C., on a 12 hour light and dark cycle, with 6 mice per cage. At 4 weeks, six mice from the Control, 0.1% Compound I-63 and 0.1% Compound I-62 groups were sacrificed by cervical dislocation, brains removed, snap-frozen in liquid nitrogen, and stored at −80° C. Brains were homogenized in 350 pi of buffer containing 20 mM MOPS-Na, pH 7.2, 1 mM EDTA/DTT, 0.5 mg/L of aprotinin, leupeptin and pepstatin, 100 nM okadaic acid, and clarified by centrifugation (14000 rpm, 10 min, 4° C.). Supernatant protein concentrations were measured by the Bradford method, 4 volumes of the supernatant and 1 volume of 5×SDS sample buffer were mixed and boiled for 2 minutes. Boiled homogenate ([…]) were loaded on 12% polyacrylamide gels, and transferred to nitrocellulose membranes. […] Protein bands were detected with the ECL Plus reagent (GE Healthcare) and blots scanned on a Molecular Dynamics Storm Imager. […]

T1 sequence (P67775 whole entry): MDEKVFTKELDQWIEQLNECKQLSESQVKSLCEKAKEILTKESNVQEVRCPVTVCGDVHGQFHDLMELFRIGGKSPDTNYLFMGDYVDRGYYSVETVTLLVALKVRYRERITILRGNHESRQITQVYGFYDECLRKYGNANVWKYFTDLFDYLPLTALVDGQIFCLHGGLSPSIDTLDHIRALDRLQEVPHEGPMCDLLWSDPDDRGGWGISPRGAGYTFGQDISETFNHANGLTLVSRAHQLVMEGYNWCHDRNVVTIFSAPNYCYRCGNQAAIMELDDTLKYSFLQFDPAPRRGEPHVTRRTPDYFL
T1 sequence (P30153 whole entry partner): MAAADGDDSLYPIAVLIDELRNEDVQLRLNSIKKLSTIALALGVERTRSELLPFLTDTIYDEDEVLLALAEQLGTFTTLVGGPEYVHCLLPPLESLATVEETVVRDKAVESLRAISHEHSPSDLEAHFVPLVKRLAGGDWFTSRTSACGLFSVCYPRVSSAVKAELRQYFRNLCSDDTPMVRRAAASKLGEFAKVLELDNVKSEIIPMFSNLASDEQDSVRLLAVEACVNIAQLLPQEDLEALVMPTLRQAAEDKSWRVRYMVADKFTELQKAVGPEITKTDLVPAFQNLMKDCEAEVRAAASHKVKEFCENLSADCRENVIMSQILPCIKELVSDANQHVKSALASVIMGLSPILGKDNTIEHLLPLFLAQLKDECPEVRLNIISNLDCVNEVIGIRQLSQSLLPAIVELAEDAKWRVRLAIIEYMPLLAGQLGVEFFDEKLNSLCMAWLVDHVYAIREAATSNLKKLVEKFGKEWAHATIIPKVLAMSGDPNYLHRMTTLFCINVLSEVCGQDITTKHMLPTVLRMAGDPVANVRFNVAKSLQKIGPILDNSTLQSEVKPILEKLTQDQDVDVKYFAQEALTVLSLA

IC50 (PP2A): > 100 µM | IC50 [1]: < 10 µM
Structure (SMILES): CCCCCCCCCCCCCCCCCCCC(=O)NCCc1c[nH]c2ccc(O)cc12 [Compound I-63, N-(2-(5-hydroxy-1H-indol-3-yl)ethyl)icosanamide]
cell survival (N2a Neuroblastoma Cells; 4 hours): over 85% | cell survival (N2a Neuroblastoma Cells; 24 hours): over 85% | lowering of phosphorylated tau levels in the brain compared to control (phosphorylated Tau): 40%
